This passage reports Ki results from ChEMBL document CHEMBL1136565, “5-Azidoepibatidine: an exceptionally potent photoaffinity ligand for neuronal alpha 4 beta 2 and alpha 7 nicotinic acetylcholine receptors” (Bioorg Med Chem Lett, 2003).

The structures appear in SMILES notation.

Assay [1] can be described thus: Binding affinity to Drosophila nicotinic receptor was measured using [3H]imidacloprid as radioligand. Further details: species or system Drosophila melanogaster.
Assay [2] addresses Neuronal acetylcholine receptor subunit alpha-7 (Homo sapiens, UniProt P36544). In words: Binding affinity to alpha-7 receptor subtype from human neuroblastoma SH-SY5Y cells was measured using [125I]-alpha-bungarotoxin as radioligand. Type of assay: cell-based.
Assay [3] has as its target Neuronal acetylcholine receptor; alpha4/beta2 (Homo sapiens, UniProt P17787+P43681). Kind of assay: Binding affinity to alpha4 beta-2 receptor subtype from mouse fibroblast M10 cells was measured using [3 H]nicotine. In kind it is cell-based.

Neuronal acetylcholine receptor subunit alpha-7, sequence (P36544 whole entry): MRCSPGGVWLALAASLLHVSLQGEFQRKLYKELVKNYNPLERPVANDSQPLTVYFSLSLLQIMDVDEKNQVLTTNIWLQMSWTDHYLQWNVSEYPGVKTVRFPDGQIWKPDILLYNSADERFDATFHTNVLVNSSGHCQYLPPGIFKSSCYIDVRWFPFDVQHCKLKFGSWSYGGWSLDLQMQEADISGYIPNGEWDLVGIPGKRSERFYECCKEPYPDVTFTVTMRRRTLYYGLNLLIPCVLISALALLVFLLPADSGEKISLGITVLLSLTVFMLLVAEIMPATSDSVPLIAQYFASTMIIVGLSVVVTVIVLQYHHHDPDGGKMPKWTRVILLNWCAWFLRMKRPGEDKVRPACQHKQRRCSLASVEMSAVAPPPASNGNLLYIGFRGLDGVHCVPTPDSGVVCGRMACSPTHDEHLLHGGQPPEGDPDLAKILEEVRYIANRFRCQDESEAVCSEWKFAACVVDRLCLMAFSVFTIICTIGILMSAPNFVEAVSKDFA
Neuronal acetylcholine receptor; alpha4/beta2, sequence (P17787 whole entry): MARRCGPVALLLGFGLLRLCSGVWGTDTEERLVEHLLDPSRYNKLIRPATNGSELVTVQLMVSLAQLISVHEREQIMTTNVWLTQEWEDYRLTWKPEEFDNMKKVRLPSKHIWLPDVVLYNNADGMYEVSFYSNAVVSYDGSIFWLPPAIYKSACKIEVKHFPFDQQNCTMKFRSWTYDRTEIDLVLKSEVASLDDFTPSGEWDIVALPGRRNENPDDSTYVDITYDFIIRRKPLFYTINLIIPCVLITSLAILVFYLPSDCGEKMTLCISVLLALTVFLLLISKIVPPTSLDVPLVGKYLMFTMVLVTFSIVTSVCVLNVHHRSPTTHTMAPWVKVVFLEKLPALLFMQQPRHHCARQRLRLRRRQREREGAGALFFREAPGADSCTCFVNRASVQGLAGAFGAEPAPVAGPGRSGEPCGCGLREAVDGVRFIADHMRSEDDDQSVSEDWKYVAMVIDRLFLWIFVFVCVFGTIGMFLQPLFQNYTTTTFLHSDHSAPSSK
Neuronal acetylcholine receptor; alpha4/beta2, sequence (P43681 whole entry): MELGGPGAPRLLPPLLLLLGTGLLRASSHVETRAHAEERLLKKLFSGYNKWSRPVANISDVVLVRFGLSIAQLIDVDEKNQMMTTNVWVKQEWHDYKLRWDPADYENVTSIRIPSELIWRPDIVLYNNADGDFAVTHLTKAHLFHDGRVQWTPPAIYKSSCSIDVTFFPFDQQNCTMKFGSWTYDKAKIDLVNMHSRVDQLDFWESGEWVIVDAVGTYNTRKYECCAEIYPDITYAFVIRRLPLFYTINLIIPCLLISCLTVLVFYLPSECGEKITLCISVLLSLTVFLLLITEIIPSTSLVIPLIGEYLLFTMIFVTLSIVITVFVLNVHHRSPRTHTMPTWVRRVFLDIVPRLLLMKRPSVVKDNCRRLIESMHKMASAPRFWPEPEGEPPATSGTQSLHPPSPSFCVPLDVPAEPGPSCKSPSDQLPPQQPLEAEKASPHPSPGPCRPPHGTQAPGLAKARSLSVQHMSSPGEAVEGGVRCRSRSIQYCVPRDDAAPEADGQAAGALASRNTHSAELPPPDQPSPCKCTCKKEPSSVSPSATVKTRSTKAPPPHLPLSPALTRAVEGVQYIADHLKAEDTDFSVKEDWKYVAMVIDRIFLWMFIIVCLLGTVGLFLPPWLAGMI

As to `Clc1ccc(C2CC3CCC2N3)cn1` (stereo not given) [EPIBATIDINE], the inhibition constant (Ki) (in general, a dissociation constant, usually derived from enzyme kinetics or from competition with a known ligand) in assay [1] worked out at 200 nM; in assay [2] it was 10.2 nM.
For the compound `[N-]=[N+]=Nc1cc(C2CC3CCC2N3)cnc1Cl` (stereo not given) [AZIDOEPIBATIDINE], the inhibition constant (Ki) in assay [3] came to 0.027 nM; in assay [1] it was 2100 nM; in assay [2], 9.7 nM.
